Results taken from patent US20120252773A1, “Method and composition for inhibiting cell proliferation and angiogenesis” (priority 2005, published 2012).

Assays:
[1] = system: Chick Chorioallantoic Membrane (CAM); assay: Chick chorioallantoic membrane (CAM) assay, blood vessel density; assay type: in vivo; settings: 12.5 μg per embryo in 0.5% methylcellulose, vs vehicle control
Description: A CAM assay was conducted as previously described (K. Amin, J. Li, and W-R. Chao, Cancer Biol. Ther. 2: 173-178, (2003). Briefly, fresh fertile eggs were incubated in a standard egg incubator at 37° C. for 3 days. On Day 3, eggs were cracked under sterile conditions and embryos were placed into 20×100 mm sterile plastic Petri dishes and cultivated at 37° C. in an embryo incubator with a water reservoir on the bottom shelf. Air was continuously bubbled into the water reservoir using a small pump so that the humidity in the incubator was kept constant. On Day 6, a sterile silicon “o” ring was placed on each CAM, and test compound (2) dissolved in 0.5% methylcellulose was delivered into each “o” ring under sterile conditions. Embryos were returned to the incubator. Control embryos received 10 μL of vehicle alone, while 12.5 μg of (2) was delivered to test embryos. On Day 8, embryos were removed from the incubator and kept at room temperature while blood vessel density was determined under each “o” ring using an image capturing system at a magnification of 160×.

[2] = system: granulation tissue in fibrin Z-chambers; assay: In vivo fibrin-Z chamber assay, wound healing and microvessel density; settings: rat
Description: An in vivo fibrin-Z chamber assay (K. Amin et al., Cancer Biol. Ther. 2:173-178, (2003) was run to analyze wound healing and microvessel density. Plasminogen-free fibrinogen and thrombin were added to a sterile dual porous chamber through a port. To implant the chambers into rats, the animals were anesthetized with 35 mg/kg of sodium pentobarbital. Two incisions approximately 2 cm in length each were made on the dorsum, one over the mid vertebral and the other over the lower vertebral regions. Pockets were made in the subcutaneous fascia lateral to the incisions using blunt end scissors, and the chambers were placed deep into the pockets. The incision wounds were closed with an autoclip stapling device. Triple antibiotic ointment was applied to the incision area to prevent infection. At 24 h after the implantation, rats began to receive a single daily oral dose of (2) at 0, 3, or 30 mg/kg for 12 days. At the end of 12th day, animals were sacrificed. The chambers were harvested, fixed in 10% formalin overnight, and embedded in paraffin for histological analysis. To determine the effect of (2) on wound healing response, granulation tissue (GT) thickness was measured in microns on H&E-stained cross sections of fibrin Z-chambers using the Zeiss Axioskop II equipped with digital camera (Axiocam) and digital imaging software KS 300. To measure the effect of (2) on microvessel density, immunohistochemistry was performed on 4 μm thick paraffin-embedded sections. The sections were deparaffinized in Hemo-D, rehydrated in graded alcohols, subjected to endogenous peroxidase block in 3% H2O2, boiled in 10% citrate buffer for antigen retrieval, blocked with 5% donkey serum, and placed overnight at 4° C. with primary […] monoclonal antibody at 1:20 dilution. […] Images of three hot spots (×200 fields showing maximal vessel density) were captured from each section and the blood vessels counted using the Zeiss interactive digital imaging software KS300. A total of 15 high-power fields (HPFs, 40×) were counted for vessel density for each group.

[3] = molecular target: T1, Human recombinant estrogen receptor-β (ER-β) (Homo sapiens, UniProt Q92731); assay: Estrogen receptor binding assay, 3H-17β-estradiol displacement, ER-β; settings: 4° C. overnight
T1 construct: purchased PanVera Corporation (Madison, Wis.)
T1 sequence (Q92731 whole entry): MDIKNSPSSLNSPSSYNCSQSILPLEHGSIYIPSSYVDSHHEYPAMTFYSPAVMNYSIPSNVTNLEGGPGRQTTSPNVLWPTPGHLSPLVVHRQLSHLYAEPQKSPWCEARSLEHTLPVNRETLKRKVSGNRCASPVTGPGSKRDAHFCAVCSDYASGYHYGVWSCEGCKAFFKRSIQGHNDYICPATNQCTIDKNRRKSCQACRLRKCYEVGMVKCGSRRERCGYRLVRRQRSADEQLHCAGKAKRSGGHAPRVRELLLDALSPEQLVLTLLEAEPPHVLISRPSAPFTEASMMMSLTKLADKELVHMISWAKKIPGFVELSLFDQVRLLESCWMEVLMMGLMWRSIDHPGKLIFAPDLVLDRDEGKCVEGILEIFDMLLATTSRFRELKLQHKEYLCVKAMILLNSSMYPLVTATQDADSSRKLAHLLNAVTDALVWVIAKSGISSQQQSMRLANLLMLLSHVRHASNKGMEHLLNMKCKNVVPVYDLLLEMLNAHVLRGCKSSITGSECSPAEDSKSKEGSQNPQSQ
Description: Human recombinant estrogen receptor-α (ER-α) and estrogen receptor-β (ER-β) were obtained from PanVera Corporation (Madison, Wis.) to conduct the binding assay. To measure the binding affinity of (2), various concentrations of (2) or 17β-estradiol were incubated with either ER-α or ER-β receptor in the presence of a fixed amount of ^3H-17β-estradiol at 4° C. overnight. At the end of the incubation, the free- and bound-3H-estradiol were separated following the instructions provided by the manufacturer using hydroxylapatite.

[4] = system: A549 human non-small cell lung cancer cells; assay: Cell growth inhibition, MTT, 7 days, A549; assay type: cell-based; settings: A549, 7 days, Example 15
Description: To measure the inhibitory activity of (2) on growth of HDMVEC cells (Clonetics, San Diego, Calif.), 2,000 cells were seeded in each well of a 96-well plate in […] of EGM medium (Clonetics) supplemented with 5% fetal bovine serum (Sigma). The plate was incubated at 37° C. in a tissue culture incubator for 24 h, and then various concentrations of (2) dissolved in EGM were added to each well in 5-10 μl aliquots. Four wells were used for each concentration. Medium in each well was renewed with fresh test solution added every other day. After 7 days of culture, the viable cells were measured using reagents from an MTT kit (Promega Corporation, Madison, Wis.), using instructions provided by the supplier. The number of viable cells in treated wells relative to those in control wells gave the percentage of inhibition.
Compound (2) was evaluated in several different human cancer cell lines for its effects on cell growth. […]
To measure the inhibitory activity of test articles on growth of NSCLC cells, 2,000 cells were seeded in each well of a 96-well plate in […] of RPMI-1640 medium supplemented with 2 mM glutamine and 10% fetal bovine serum (growth medium). […] After 7 days of culture, the viable cells were measured using reagents from MTT kit (Promega Corporation, Madison, Wis.), using instructions provided by the supplier. […]

C[C@@H]1Cc2cc(O)ccc2C2CCC3(C)/C(=C/COCCN(C)C)CCC3C21 (stereo partly drawn) [Compound (2), (E)-3-Hydroxy-7α-methyl-21-[(2-dimethylamino)ethoxy]-19-norpregna-1,3,5(10),17(20)-tetraene]
blood vessel density [1]: drastically decreased the blood vessel density
decrease in granulation tissue thickness ([2]; 3 mg/kg oral once daily for 12 days): about 20%
decrease in granulation tissue thickness ([2]; 30 mg/kg oral once daily for 12 days): more than 35%
decrease in microvessel formation as compared to the control ([2]; oral once daily for 12 days, dose not stated): 30%
binding affinity (relative to non-radiolabeled estradiol, 50% displacement of 3H-estradiol) [3]: 64
growth of NSCLC cells [4]: inhibited the growth of NSCLC cells in a dose-response manner
inhibitory activity compared with Cisplatin tested in parallel [4]: much more potent than that of Cisplatin
